Results on 1 substance are retold here after patent publication US11478528B2, “Antimicrobial peptides against Listeria monocytogenes” (MATERIAS S.r.l., priority 2017, dated 2022).

“Also recorded” adds a separate entry of the source. Ends that are not written are not given here.

Data set [1] can be described thus: pH stability assay by Circular Dichroism. As to the method:
The stability of the Bac-amp1 and IDR-1018 peptides was assessed by studying their secondary structure with Circular Dichroism (CD) spectroscopy in the presence of Sodium Dodecyl Sulfate (SDS) micelles at a concentration of 10 mM to mimic the condition of the cell membrane, in different temperature and pH conditions.
CD assays were performed with a Jasco J-810 Spectropolarimeter equipped with a thermostatted cuvette compartment. The samples were loaded into a 0.1 cm-long quartz cuvette (Hellma Analytics) and the spectrum was analyzed in the 190 nm to 250 nm range at temperatures of 15° C. or 90° C. for each sample.
The CD spectra were acquired at a scanning speed of 20 nm/min, and the recorded results represent an average of 5 scans. The spectra at 90° C. were collected at time zero and after 2 hours to evaluate the thermostability of peptides at high temperatures.
The average ellipticity of the residues ([θ], degrees cm^2 dmol^−1) was calculated using the following equation: [θ]=100θ/cn1 where θ represents ellipticity (m degrees), c is the concentration (mM) of the peptide, n is the number of residues. The secondary structure was calculated through the DICHROWEB site (Whitmore L and Wallace B A, 2004, Nucleic Acids Research 32: 668-673, Whitmore L and Wallace B A, 2008, Biopolymers 89:392-400, Lobley et al, 2002, Bioinformatics 18:211-212), using three different algorithms (SELCON3, CONTIN-LLe CDSSTR) (Sreerema N and Woody R W, 1993, Analytical Biochemistry 287:252-260; Sreerema N et al, 1999, Protein Science 8:370-380, Provencher S W and Glockner J, 1981, Biochemistry 20:33-37, Van Stokkum I H M et al, 1990, Analytical Biochemistry 191:110-118, Compton L A and Johnson W C, 1986, Analytical Biochemistry 155:155-167, Manavalan P and Johnson W C, 1987, Analytical Biochemistry 167:76-85, Sreerama N et al, 2000, Protein Science 8:370-380) and selecting as a comparison data set the SMP180 protein, which includes a high number of soluble and membrane proteins (Abdul-Gader A et al, 2011, Bioinformatics 27:1630-1636). […]

A short description of data set [2]: Thermostability assay by Circular Dichroism. The data set is classed as physicochemical. Conditions: 15 to 90° C., 2 hours at 90° C., pH 6, 10 mM SDS. On the procedure:
The prepared samples were incubated for two hours at 15° C. or 90° C. A CD analysis was performed on samples stored at 15° C. and before and after incubation for two hours at 90° C.

Data set [3] relates to L. monocytogenes biofilms. As to the kind of experiment: Antibiofilm activity assay with SEM on steel discs. The data set is classed as cell-based, Listeria monocytogenes. Conditions: 50 μM. As to the method: The activity of the Bac-amp1 and IDR-1018 peptides on L. monocytogenes biofilms was further investigated by scanning electron microscopy (SEM).
Specifically, in this example the three-dimensional biofilm architecture, developed on stainless steel materials, was studied.
The Aisi 304 stainless steel discs with a diameter of 14.5 mm (SS) were treated with 600 μl of standardized inoculum in the presence or absence of each of the peptides at the concentration of 25 μM or 50 μM, or with control medium, according to the same method of Example 4a and repeatedly washed in sterile PBS to remove planktonic cells and fixated on a new plate with 1 ml of Karnovsky fixative containing 5% glutaraldehyde, 4% paraformaldehyde in buffer 0.064 M (Electronic Microscopy Science, Hatfield, Pa., USA) for 1 hour at 4° C. Thereafter, the samples were washed in 0.1 M cacodylate sodium buffer at pH 7.4 (Electronic Microscopy Science, Hatfield, Pa., USA) and the fixated cells were dehydrated in a series of aqueous acetone solutions at different concentrations, in particular 25%, 50%, 75% and 100%. The samples were glued onto polished aluminium sample holders (Electronic Microscopy Science, Hatfield, Pa., USA) and uniformly vacuum coated with a 20-nm thick gold layer with the K950 high-vacuum Turbo Evaporator and a K 350 coupling (Emitech Ltd, Ashford, UK). The coated samples were examined at the JEOL 6700 FEG Field Emission Electron Microscope (SEM Jeol, City and State) with magnification from 1000× to 5000×. For each sample, a number of images (5-10), acquired as electronic images were randomly analyzed.

Turning to “VRLIVAVRIWRR-NH2 [IDR-1018, VRLIVAVRIWRR]”, in data set [1] (10 mM SDS, 24 hours at 37° C.), the “pH range with increase in the percentage of unordered random coil structure” value is given as 8.0-11.0. Besides, the “conformational stability at different pH” value in data set [1] (pH 1.0 to 11.0) was “higher conformational stability at pH 1.0; also recorded: greater conformational stability at pH 1.0”. For the same substance, the “thermostability (CD spectra)” value in data set [2] is “high thermostability”. Moreover, the “cells on steel discs by SEM, 5000× image” value in data set [3] is listed as “a greater number of cells”.
